# Test results reported in patent publication US20250304620A1, “ANTIMICROBIAL PEPTIDE AND APPLICATION THEREOF” (priority 2023, published 2025).
# Marks after values point to notes of the source that are not given here. Non-standard residues stand in square brackets, D forms with d. Residues, ends and D or L forms follow the SMILES beside them. d2Nal = N[C@H](Cc1ccc2ccccc2c1)C(=O)O; dNle = CCCC[C@@H](N)C(=O)O; dNva = CCC[C@@H](N)C(=O)O
# Tests used:
# [1] = system: Staphylococcus aureus (NRS 384); test: microbe, parasite or virus in culture; type: cell-based; settings: NRS 384
# Method in brief: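 MICs were read against S. aureus strain NRS 384 using twofold serial dilution by CLSI microdilution rules. Levofloxacin and Cbf-K16 were the reference controls, and the test was repeated 5 times in parallel.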
# [2] = system: Bacillus subtilis ATCC 6633; type: cell-based
# Method in brief: (§1)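 Serial twofold peptide dilutions were set up in microdilution format per CLSI, MICs were read, and the procedure was repeated in 5 parallel runs.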
# [3] = system: Candida albicans ATCC MYA-2876; type: cell-based
# Method in brief: as §1
# [4] = system: Candida glabrata ATCC 15126; type: cell-based
# Method in brief: as §1
# Candida krusei ATCC 6258 = type: cell-based
# Method in brief: as §1
# [5] = system: Candida tropicalis ATCC 750; type: cell-based
# Method in brief: as §1
# Candida utilis ATCC 9950 = type: cell-based
# Method in brief: as §1
# [6] = system: Corynebacterium ATCC 7715; type: cell-based
# Method in brief: as §1
# Enterococcus ATCC 29212 = type: cell-based
# Method in brief: as §1
# [7] = system: Escherichia coli ATCC 25922; type: cell-based
# Method in brief: as §1
# [8] = system: Klebsiella pneumoniae ATCC 700603; type: cell-based
# Method in brief: as §1
# [9] = system: Pseudomonas aeruginosa ATCC 27853; type: cell-based
# Method in brief: as §1
# [10] = system: Salmonella typhimurium ATCC 14028; type: cell-based
# Method in brief: as §1
# [11] = system: Serratia marcescens ATCC 29021; type: cell-based
# Method in brief: as §1
# [12] = system: Staphylococcus aureus ATCC 25923; type: cell-based
# Method in brief: as §1
# [13] = system: Trichophyton ATCC MYA-4438; type: cell-based
# Method in brief: as §1
# [14] = system: Shigella flexneri ATCC 12022; test: MIC against clinically common bacterial strain; type: cell-based
# Method in brief: as §1
# [15] = system: Methicillin-resistant Staphylococcus aureus (MRSA); type: cell-based; settings: Methicillin-resistant
# Method in brief: (§2)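 Five parallel experiments per strain; values are MICs from CLSI-standard broth microdilution of peptides in twofold steps.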
# [16] = system: carbapenem-resistant Escherichia coli (CREC); type: cell-based; settings: carbapenem-resistant (CREC)
# Method in brief: as §2
# [17] = system: carbapenem-resistant Klebsiella pneumoniae (CRKP); type: cell-based; settings: carbapenem-resistant (CRKP)
# Method in brief: as §2
# [18] = system: carbapenem-resistant Pseudomonas aeruginosa (CRPA); type: cell-based; settings: carbapenem-resistant (CRPA)
# Method in brief: as §2
# [19] = system: vancomycin-resistant Enterococcus (VRE); type: cell-based
# Method in brief: as §2
# [20] = system: Staphylococcus aureus (NRS 384); settings: NRS 384, 3 h
# Protocol: Trypsin (250 U/mg, pH=8.0) and AMPs (LV-1 to LV-30) were mixed in a ratio of 1:10 (w/w) and added to a reaction buffer (0.2 M sodium phosphate, 1 mM CaCl2), pH 7.5), and then incubated at 37° C. for 3 h.
# [21] = system: Pseudomonas aeruginosa ATCC 27853; test: Injectable formulations on mice infected with peritonitis; type: in vivo, ICR mice; settings: twice a day for 3 days; for Number of mice that died on each day after infection: day 1 / Number of mice that died on each day after infection: day 2 / Number of mice that died on each day after infection: day 3 / Number of mice that died on each day after infection: day 4 / Number of mice that died on each day after infection: day 5 / Average survival times (Days): n = 10; for Average survival times (Days): observed for 14 d
# Method in brief: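 Survival readout: deaths and survival time tracked for 14 d. Treatment was tail-vein injection by body weight, twice a day for 3 consecutive days, starting right after intraperitoneal challenge with 0.2 mL of 1×10^9 CFU/mL P. aeruginosa ATCC 27853 in male and female ICR mice.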
# [22] = Serum stability assay (residual level by RP-HPLC); settings: human
smiles,measurement,setting,value
CCCC[C@@H](NC(=O)[C@@H](CCCCN)NC(=O)[C@@H](CCCNC(=N)N)NC(C)=O)C(=O)N[C@H](CCCC)C(=O)N[C@H](Cc1ccc2ccccc2c1)C(=O)N[C@H](CCCNC(=N)N)C(=O)N[C@H](CCCC)C(=O)N[C@H](CCCCN)C(=O)N[C@H](Cc1ccc2ccccc2c1)C(=O)N[C@H](CCCNC(=N)N)C(=O)N[C@H](CCCCN)C(N)=O [LV-12] (Ac-[dR][dK][dNle][dNle][d2Nal][dR][dNle][dK][d2Nal][dR][dK]-NH2),MIC against Staphylococcus aureus (NRS 384),[1],1 µg/mL
same,MIC Bacillus subtilis ATCC 6633,[2],8 µg/mL
same,MIC Candida albicans ATCC MYA-2876,[3],8 µg/mL
same,MIC Candida glabrata ATCC 15126,[4],4 µg/mL
same,MIC Candida krusei ATCC 6258,Candida krusei ATCC 6258,4 µg/mL
same,MIC Candida tropicalis ATCC 750,[5],8 µg/mL
same,MIC Candida utilis ATCC 9950,Candida utilis ATCC 9950,16 µg/mL
same,MIC Corynebacterium ATCC 7715,[6],2 µg/mL
same,MIC Enterococcus ATCC 29212,Enterococcus ATCC 29212,4 µg/mL
same,MIC Escherichia coli ATCC 25922,[7],1 µg/mL
same,MIC Klebsiella pneumoniae ATCC 700603,[8],2 µg/mL
same,MIC Pseudomonas aeruginosa ATCC 27853,[9],1 µg/mL
same,MIC Salmonella typhimurium ATCC 14028,[10],4 µg/mL
same,MIC Serratia marcescens ATCC 29021,[11],2 µg/mL
same,MIC Staphylococcus aureus ATCC 25923,[12],1 µg/mL
same,MIC Trichophyton ATCC MYA-4438,[13],16 µg/mL
same,MIC Shigella flexneri ATCC 12022,[14],4 µg/mL
same,MIC MRSA,[15],8 µg/mL
same,MIC CREC,[16],8 µg/mL
same,MIC CRKP,[17],4 µg/mL
same,MIC CRPA,[18],2 µg/mL
same,MIC VRE,[19],4 µg/mL
same,Trypsin MIC,[20],1 µg/mL
same,Number of mice that died on each day after infection: day 1,[21]; 0.2 mg/kg via tail vein,2 Mouse
same,Number of mice that died on each day after infection: day 2,[21]; 0.2 mg/kg via tail vein,1 Mouse
same,Number of mice that died on each day after infection: day 3,[21]; 0.2 mg/kg via tail vein,0 Mouse
same,Number of mice that died on each day after infection: day 4,[21]; 0.2 mg/kg via tail vein,2 Mouse
same,Number of mice that died on each day after infection: day 5,[21]; 0.2 mg/kg via tail vein,1 Mouse
same,Average survival times (Days),[21]; 0.2 mg/kg via tail vein,7.3** Days
same,Number of mice that died on each day after infection: day 1,[21]; 1 mg/kg via tail vein,0 Mouse
same,Number of mice that died on each day after infection: day 2,[21]; 1 mg/kg via tail vein,0 Mouse
same,Number of mice that died on each day after infection: day 3,[21]; 1 mg/kg via tail vein,2 Mouse
same,Number of mice that died on each day after infection: day 4,[21]; 1 mg/kg via tail vein,0 Mouse
same,Number of mice that died on each day after infection: day 5,[21]; 1 mg/kg via tail vein,1 Mouse
same,Average survival times (Days),[21]; 1 mg/kg via tail vein,10.9**** Days
same,Number of mice that died on each day after infection: day 1,[21]; 5 mg/kg via tail vein,0 Mouse
same,Number of mice that died on each day after infection: day 2,[21]; 5 mg/kg via tail vein,1 Mouse
same,Number of mice that died on each day after infection: day 3,[21]; 5 mg/kg via tail vein,2 Mouse
same,Number of mice that died on each day after infection: day 4,[21]; 5 mg/kg via tail vein,0 Mouse
same,Number of mice that died on each day after infection: day 5,[21]; 5 mg/kg via tail vein,1 Mouse
same,Average survival times (Days),[21]; 5 mg/kg via tail vein,9.7*** Days
same,survival time of mice infected with Pseudomonas aeruginosa,"[21]; tail vein, observed 14 d",superior to those of the Levofloxacin group
same,"remaining at 12 h, 0.91 mg/mL",[22],97.5%
CCC[C@@H](NC(=O)[C@@H](CCCCN)NC(=O)[C@@H](CCCNC(=N)N)NC(C)=O)C(=O)N[C@H](CCC)C(=O)N[C@H](Cc1ccc2ccccc2c1)C(=O)N[C@H](CCCNC(=N)N)C(=O)N[C@H](CCC)C(=O)N[C@H](CCCCN)C(=O)N[C@H](Cc1ccc2ccccc2c1)C(=O)N[C@H](CCCNC(=N)N)C(=O)N[C@H](CCCCN)C(N)=O [LV-13] (Ac-[dR][dK][dNva][dNva][d2Nal][dR][dNva][dK][d2Nal][dR][dK]-NH2),MIC against Staphylococcus aureus (NRS 384),[1],1 µg/mL
same,MIC Bacillus subtilis ATCC 6633,[2],4 µg/mL
same,MIC Candida albicans ATCC MYA-2876,[3],16 µg/mL
same,MIC Candida glabrata ATCC 15126,[4],8 µg/mL
same,MIC Candida krusei ATCC 6258,Candida krusei ATCC 6258,4 µg/mL
same,MIC Candida tropicalis ATCC 750,[5],4 µg/mL
same,MIC Candida utilis ATCC 9950,Candida utilis ATCC 9950,8 µg/mL
same,MIC Corynebacterium ATCC 7715,[6],4 µg/mL
same,MIC Enterococcus ATCC 29212,Enterococcus ATCC 29212,8 µg/mL
same,MIC Escherichia coli ATCC 25922,[7],2 µg/mL
same,MIC Klebsiella pneumoniae ATCC 700603,[8],4 µg/mL
same,MIC Pseudomonas aeruginosa ATCC 27853,[9],4 µg/mL
same,MIC Salmonella typhimurium ATCC 14028,[10],2 µg/mL
same,MIC Serratia marcescens ATCC 29021,[11],4 µg/mL
same,MIC Staphylococcus aureus ATCC 25923,[12],2 µg/mL
same,MIC Trichophyton ATCC MYA-4438,[13],4 µg/mL
same,MIC Shigella flexneri ATCC 12022,[14],8 µg/mL
same,MIC MRSA,[15],2 µg/mL
same,MIC CREC,[16],4 µg/mL
same,MIC CRKP,[17],2 µg/mL
same,MIC CRPA,[18],2 µg/mL
same,MIC VRE,[19],4 µg/mL
same,Trypsin MIC,[20],1 µg/mL
same,Number of mice that died on each day after infection: day 1,[21]; 1 mg/kg via tail vein,3 Mouse
same,Number of mice that died on each day after infection: day 2,[21]; 1 mg/kg via tail vein,1 Mouse
same,Number of mice that died on each day after infection: day 3,[21]; 1 mg/kg via tail vein,0 Mouse
same,Number of mice that died on each day after infection: day 4,[21]; 1 mg/kg via tail vein,1 Mouse
same,Number of mice that died on each day after infection: day 5,[21]; 1 mg/kg via tail vein,0 Mouse
same,Average survival times (Days),[21]; 1 mg/kg via tail vein,7.9** Days
same,"remaining at 12 h, 0.91 mg/mL",[22],98.5%
